Test results published in patent US20090148398A1, “Naturally Occurring Volatile Attractant” (priority 2007, published 2009).
Entries after “also recorded” stand apart in the source; their conditions may differ.

What was measured:
fire ant workers = assay: Fire ant alarm response; design: species or system Solenopsis invicta; conditions: in vivo
Method: Recently, the identity of a component of the fire ant alarm pheromone was determined to be 2-ethyl, 3,6-dimethyl pyrazine and the origin is the mandibular gland. […] In addition, 2-ethyl, 3,6-dimethyl pyrazine is commercially available as a mixture with the related compound, 2-ethyl, 3,5-dimethyl pyrazine.

S. invicta workers = assay: Y-tube olfactometer attraction bioassay; design: species or system Solenopsis invicta; conditions: in vivo
Description: All ants used in these experiments were obtained from mature, queenright, monogyne Solenopsis invicta colonies excavated from a known monogyne site in Gainesville, Fla. The colonies were separated from the dirt and set up in the laboratory at least one month prior to the experiments. Laboratory colonies were maintained on a diet of crickets, water and 10% sucrose, and kept in plastic trays (83×53×13 cm) whose inner sides were painted with poly tetrafluoroethylene compositions (ADI Fluon, ICI Americas, Bayonne, NF) to prevent, escape of the ants. Based on the above, the attraction of S. invicta workers to various concentrations of the commercially available mixture of 2-ethyl, 3,5-dimethyl pyrazine and 2-ethyl, 3,6-dimethyl pyrazine was evaluated using a Y-tube olfactometer (FIG. 5). The olfactometer is composed of two 24/40 ground glass joints 14 each ring sealed to one of the arms 24 of an approximately 5 cm Y-tube 26 such that about 1 cm of each Y-tube extends through the male half of one of the ground glass joints. An approximately 5 cm piece of about 0.6 cm tubing is ring sealed about 1 cm into the female half of the ground glass joints. […] The number of ants entering the chamber with either the control or the treatment during the 3 min were counted and recorded. […]

CCc1ncc(C)nc1C [2-ethyl, 3,5-dimethyl pyrazine]
alarm response of fire ant workers (fire ant workers): elicit an alarm response

CCc1nc(C)cnc1C [2-ethyl, 3,6-dimethyl pyrazine]
alarm response of fire ant workers (fire ant workers): elicited the full range of previously reported fire ant alarm behaviors; also recorded: fire ant workers responded better
attraction of fire ant workers (conclusion of olfactometer experiment) (S. invicta workers): attracts fire ant workers through space
